Source: PubChem BioAssay (NCI)
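Where inhibition never reached the appropriate level, the endpoint shown equals the highest concentration tested. Otherwise, values were interpolated linearly from a five-concentration, 48-hour dose response in 96-well plates. At the GI50, growth is halved. TGI marks complete inhibition of growth.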

Experiments:
Experiment in all cases: NCI-60 cell line screen, 48 h
[1] = system: 786-0 renal
[2] = system: A498 renal
[3] = system: A549 NSCLC
[4] = system: ACHN renal
[5] = system: BT-549 breast
[6] = system: CAKI-1 renal
[7] = system: CCRF-CEM leukemia
[8] = system: COLO 205 colon
[9] = system: DU-145 prostate
[10] = system: HCC-2998 colon
[11] = system: HCT-116 colon
[12] = system: HCT-15 colon
[13] = system: HL-60(TB) leukemia
[14] = system: HOP-62 NSCLC
[15] = system: HOP-92 NSCLC
[16] = system: HS 578T breast
[17] = system: IGROV1 ovarian
[18] = system: K-562 leukemia
[19] = system: KM12 colon
[20] = system: LOX IMVI melanoma
[21] = system: M14 melanoma
[22] = system: MALME-3M melanoma
[23] = system: MCF7 breast
[24] = system: MDA-MB-231 breast
[25] = system: MDA-MB-435
[26] = system: MOLT-4 leukemia
[27] = system: NCI-H226 lung
[28] = system: NCI-H23 lung
[29] = system: NCI-H460 lung
[30] = system: NCI-H522 lung
[31] = system: NCI/ADR-RES ovarian
[32] = system: OVCAR-3 ovarian
[33] = system: OVCAR-5 ovarian
[34] = system: OVCAR-8 ovarian
[35] = system: PC-3 prostate
[36] = system: RPMI-8226 leukemia
[37] = system: RXF 393 renal
[38] = system: SF-268 CNS
[39] = system: SF-295 CNS
[40] = system: SF-539 CNS
[41] = system: SK-MEL-2 melanoma
[42] = system: SK-MEL-28 melanoma
[43] = system: SK-MEL-5 melanoma
[44] = system: SK-OV-3 ovarian
[45] = system: SN12C renal
[46] = system: SNB-19 CNS
[47] = system: SNB-75 CNS
[48] = system: SR leukemia
[49] = system: SW-620 colon
[50] = system: T-47D breast
[51] = system: TK-10 renal
[52] = system: UACC-257 melanoma
[53] = system: UACC-62 melanoma
[54] = system: UO-31 renal

Compound: COc1cc(-c2nc3sc4c(c3c(=O)[nH]2)CCCCCC4)cc(OC)c1OC
- GI50 [1]: 1460 nM
- TGI [1]: 23200 nM
- GI50 [2]: 694 nM
- TGI [2]: 3170 nM
- GI50 [3]: 1950 nM
- TGI [3]: > 33200 nM
- GI50 [4]: 1790 nM
- TGI [4]: > 33200 nM
- GI50 [5]: 1260 nM
- TGI [5]: 19000 nM
- GI50 [6]: 1230 nM
- TGI [6]: > 33200 nM
- GI50 [7]: 1280 nM
- TGI [7]: > 33200 nM
- GI50 [8]: 1160 nM
- TGI [8]: 10300 nM
- GI50 [9]: 1780 nM
- TGI [9]: > 33200 nM
- GI50 [10]: 2410 nM
- TGI [10]: > 33200 nM
- GI50 [11]: 1210 nM
- TGI [11]: 5720 nM
- GI50 [12]: 649 nM
- TGI [12]: > 33200 nM
- GI50 [13]: 1360 nM
- TGI [13]: 13000 nM
- GI50 [14]: 1360 nM
- TGI [14]: > 33200 nM
- GI50 [15]: 887 nM
- TGI [15]: 9450 nM
- GI50 [16]: 922 nM
- TGI [16]: 9760 nM
- GI50 [17]: 4580 nM
- TGI [17]: > 33200 nM
- GI50 [18]: 263 nM
- TGI [18]: > 33200 nM
- GI50 [19]: 1210 nM
- TGI [19]: > 33200 nM
- GI50 [20]: 1420 nM
- TGI [20]: > 33200 nM
- GI50 [21]: 831 nM
- TGI [21]: > 33200 nM
- GI50 [22]: 4320 nM
- TGI [22]: 20500 nM
- GI50 [23]: 903 nM
- TGI [23]: > 33200 nM
- GI50 [24]: 1070 nM
- TGI [24]: 29500 nM
- GI50 [25]: 115 nM
- TGI [25]: 611 nM
- GI50 [26]: 1860 nM
- TGI [26]: > 33200 nM
- GI50 [27]: 3600 nM
- TGI [27]: > 33200 nM
- GI50 [28]: 1430 nM
- TGI [28]: > 33200 nM
- GI50 [29]: 1200 nM
- TGI [29]: > 33200 nM
- GI50 [30]: 887 nM
- TGI [30]: 9460 nM
- GI50 [31]: 892 nM
- TGI [31]: > 33200 nM
- GI50 [32]: 922 nM
- TGI [32]: 8940 nM
- GI50 [33]: 2230 nM
- TGI [33]: > 33200 nM
- GI50 [34]: 1520 nM
- TGI [34]: > 33200 nM
- GI50 [35]: 1500 nM
- TGI [35]: > 33200 nM
- GI50 [36]: 1190 nM
- TGI [36]: 12600 nM
- GI50 [37]: 636 nM
- TGI [37]: 2550 nM
- GI50 [38]: 2970 nM
- TGI [38]: > 33200 nM
- GI50 [39]: 692 nM
- TGI [39]: 6530 nM
- GI50 [40]: 673 nM
- TGI [40]: 2080 nM
- GI50 [41]: 1110 nM
- TGI [41]: 7500 nM
- GI50 [42]: 1950 nM
- TGI [42]: > 33200 nM
- GI50 [43]: 853 nM
- TGI [43]: 2960 nM
- GI50 [44]: 890 nM
- TGI [44]: 16400 nM
- GI50 [45]: 2140 nM
- TGI [45]: > 33200 nM
- GI50 [46]: 1560 nM
- TGI [46]: > 33200 nM
- GI50 [47]: 701 nM
- TGI [47]: 2520 nM
- GI50 [48]: 776 nM
- TGI [48]: > 33200 nM
- GI50 [49]: 1500 nM
- TGI [49]: > 33200 nM
- GI50 [50]: 1400 nM
- TGI [50]: > 33200 nM
- GI50 [51]: 13800 nM
- TGI [51]: > 33200 nM
- GI50 [52]: 3000 nM
- TGI [52]: > 33200 nM
- GI50 [53]: 743 nM
- TGI [53]: 30300 nM
- GI50 [54]: 2070 nM
- TGI [54]: > 33200 nM
